Assay results taken from publication PMC10873978, “Novel tetrahydroisoquinolines as DHFR and CDK2 inhibitors: synthesis, characterization, anticancer activity and antioxidant properties” (BMC Chemistry, 2024).
Entries after “also recorded” stand apart in the source; their conditions may differ.

What was measured:
MCF7 cell line = experiment: In vitro cytotoxic activity, MTT method, MCF7; assay type: cell-based, human; settings: for IC50: Homo sapiens, MCF7, MCF7 cell line, MTT
Procedure: (§1) Cell lines: The in vitro human breast cancerous cell line (MCF7), lung cancerous cell lines (A549) and normal cell lines were purchased from Serum and Vaccine formulation in Cairo-Egypt.
(§2) In vitro cytotoxic activity of all synthesized compounds against two human breast cell line (MCF7) and lung cell lines (A549) was evaluated according to the MTT method. Firstly, Growth the cell line medium in 96 well tissue culture plate was injected with 10^5 cells/mL (100 uL/plate well) of the cell line and incubated at 37 °C for 24 h to develop a monolayer sheet then the formed growth medium was poured from 96 well microtiter plates after the confluent sheet of cells. […] Secondly, add 0.1 mL of each concentration tetrahydroisoquinoline sample to each plate. The plates were incubated at 37 °C. Thirdly MTT solution (5 mg/mL in PBS) is prepared. Add 20 µL of MTT solution to each well plates. And shaking in 150 rpm for 5 min, to mix the MTT into the media. Then incubate at (37 °C, 5% CO2) for 1–5 h. Finally read the optical density at 560 nm and subtract background at 620 nm.
(§3) In this work, doxorubicin was used as a positive control drug for comparison with the synthesized compounds under the same experimental conditions.

A549 cell line = experiment: In vitro cytotoxic activity, MTT method, A549; settings: for IC50: Homo sapiens, read-out: IC50 ± SD
Procedure: as §1, §2, §3

[1] = DPPH scavenging antioxidant activity
Procedure: The antioxidant activity of ten compounds was determined using DPPH [32–34]. A solution 1: prepared by dissolving DPPH (0.002 g) in ethanol (50 mL etnanol). Solution 2: prepared by dissolving different weights 0.05, 0.01 g of each sample in 1 mL of DMSO then take 10 µL of each sample solution with 1 mL ethanol. Then mix 1 mL of solution 1 with 1 mL of solution 2 then vortex the resulting mixture in the dark for about 30 min. The absorbance of the mixture was measured by spectrophotometer at λmax = 517 nm against blank 1 mL absolute ethanol and compared to the ascorbic acid (Vitamin C).
Ten newly synthesized compounds were studied as in vitro antioxidants by measuring of their DPPH scavenging activity which is represented as a percentage % [32]^. Results are represented by mean ± SD of three replicates. […] The higher dose concentration of 0.05 μg/mL represents higher antioxidant activity. […] The high antioxidant activity is referred to the presence of C=O, NH2, and OH groups like ascorbic acid which can be easily oxidized and reduced and can be used as antioxidant drugs. (Fig. 8 and Table 9).

`CSc1nc(C)c2c(c1C#N)CC(C)(O)C(C(C)=O)C2c1ccc(N(C)C)cc1` (centres unmarked) [Compound 3, 7-Acetyl-4-cyano-1,6-dimethyl-3-methylthio-6-hydroxy-8-(4-N,N-dimethyl-aminophenyl)-5,6,7,8-tetrahydroisoquinoline] gave an IC50 (MCF7 cell line) of 0.562 ± 0.007 µM, a Toxicity % (MCF7 cell line; MCF7, 0.0487 µMol) of 5.124% and a Viability % (MCF7 cell line; MCF7, 0.0487 µMol) of 94.876%. For the same compound, the Toxicity % (MCF7 cell line; MCF7, 0.0975 µMol) was 7.124%, the Viability % (MCF7 cell line; MCF7, 0.0975 µMol) was 92.876% and the Toxicity % (MCF7 cell line; MCF7, 0.195 µMol) was 8.333%. The Viability % (MCF7 cell line; MCF7, 0.195 µMol) was 91.67%, the Toxicity % (MCF7 cell line; MCF7, 0.391 µMol) was 38.81% and the Viability % (MCF7 cell line; MCF7, 0.391 µMol) was 61.19%. The Toxicity % (MCF7 cell line; MCF7, 0.781 µMol) was 66.75%, the Viability % (MCF7 cell line; MCF7, 0.781 µMol) was 33.25% and the Toxicity % (MCF7 cell line; MCF7, 1.562 µMol) was 82.8%. The Viability % (MCF7 cell line; MCF7, 1.562 µMol) was 17.2%, the Toxicity % (MCF7 cell line; MCF7, 3.125 µMol) was 91.22% and the Viability % (MCF7 cell line; MCF7, 3.125 µMol) was 8.783%. For the same compound, the Toxicity % (MCF7 cell line; MCF7, 6.25 µMol) was 95.14%, the Viability % (MCF7 cell line; MCF7, 6.25 µMol) was 4.861% and the Toxicity % (MCF7 cell line; MCF7, 12.5 µMol) was 97.43%. It also gave a Viability % (MCF7 cell line; MCF7, 12.5 µMol) of 2.574%, a Toxicity % (MCF7 cell line; MCF7, 25 µMol) of 97.06% and a Viability % (MCF7 cell line; MCF7, 25 µMol) of 2.941%. It also gave a Toxicity % (A549 cell line; A549, Conc. 0.0487 µMol) of 0.30%, a Viability % (A549 cell line; A549, Conc. 0.0487 µMol) of 99.700% and a Toxicity % (A549 cell line; A549, Conc. 0.0975 µMol) of 0.50%. The Viability % (A549 cell line; A549, Conc. 0.0975 µMol) was 99.50%, the Toxicity % (A549 cell line; A549, Conc. 0.195 µMol) was 0.789% and the Viability % (A549 cell line; A549, Conc. 0.195 µMol) was 99.21%. It also gave a Toxicity % (A549 cell line; A549, Conc. 0.391 µMol) of 5.089%, a Viability % (A549 cell line; A549, Conc. 0.391 µMol) of 94.91% and a Toxicity % (A549 cell line; A549, Conc. 0.781 µMol) of 23.59%. For the same compound, the Viability % (A549 cell line; A549, Conc. 0.781 µMol) was 76.41%, the Toxicity % (A549 cell line; A549, Conc. 1.562 µMol) was 38.19% and the Viability % (A549 cell line; A549, Conc. 1.562 µMol) was 61.81%. The Toxicity % (A549 cell line; A549, Conc. 3.125 µMol) was 53.18%, the Viability % (A549 cell line; A549, Conc. 3.125 µMol) was 46.82% and the Toxicity % (A549 cell line; A549, Conc. 6.25 µMol) was 70.73%. The Viability % (A549 cell line; A549, Conc. 6.25 µMol) was 29.27%, the Toxicity % (A549 cell line; A549, Conc. 12.5 µMol) was 89.43% and the Viability % (A549 cell line; A549, Conc. 12.5 µMol) was 10.57%. For the same compound, the Toxicity % (A549 cell line; A549, Conc. 25 µMol) was 96.45%, the Viability % (A549 cell line; A549, Conc. 25 µMol) was 3.55% and the IC50 (A549 cell line) was 2.469 ± 0.006 µM. For the same compound, the “DPPH scavenging, inhibition (%)” value ([1]; 0.01 µg/mL) was 25.58 ± 2.20%, the “DPPH scavenging, inhibition (%)” value ([1]; 0.05 µg/mL) was 81.39 ± 3.87% and the “antioxidant activity compared with Vitamin C” value ([1]; DPPH) was “higher result than Vitamin C; also recorded: higher antioxidant activity than Vitamin C”.

Work on `CC(=O)C1C(c2ccc(N(C)C)cc2)c2c(C)nc(SCC(=O)Nc3ccccc3)c(C#N)c2CC1(C)O` (centres unmarked) [Compound 7a, 2-[(7-Acetyl-4-cyano-1,6-dimethyl-6-hydroxy-8-(4-N,N-dimethylamino-phenyl)-5,6,7,8-tetrahydroisoquinolin-3-yl)thio]-N-phenylacetamide] yielded an IC50 (MCF7 cell line) of 2.218 ± 0.004 µM, a Toxicity % (MCF7 cell line; MCF7, 0.0487 µMol) of -5.346% and a Viability % (MCF7 cell line; MCF7, 0.0487 µMol) of 105.8%. For the same compound, the Toxicity % (MCF7 cell line; MCF7, 0.0975 µMol) was -3.456%, the Viability % (MCF7 cell line; MCF7, 0.0975 µMol) was 103.5% and the Toxicity % (MCF7 cell line; MCF7, 0.195 µMol) was -2.859%. The Viability % (MCF7 cell line; MCF7, 0.195 µMol) was 102.9%, the Toxicity % (MCF7 cell line; MCF7, 0.391 µMol) was 8.047% and the Viability % (MCF7 cell line; MCF7, 0.391 µMol) was 91.95%. For the same compound, the Toxicity % (MCF7 cell line; MCF7, 0.781 µMol) was 23.12%, the Viability % (MCF7 cell line; MCF7, 0.781 µMol) was 76.88% and the Toxicity % (MCF7 cell line; MCF7, 1.562 µMol) was 33.82%. For the same compound, the Viability % (MCF7 cell line; MCF7, 1.562 µMol) was 66.18%, the Toxicity % (MCF7 cell line; MCF7, 3.125 µMol) was 52.98% and the Viability % (MCF7 cell line; MCF7, 3.125 µMol) was 47.02%. It also gave a Toxicity % (MCF7 cell line; MCF7, 6.25 µMol) of 71.85%, a Viability % (MCF7 cell line; MCF7, 6.25 µMol) of 28.15% and a Toxicity % (MCF7 cell line; MCF7, 12.5 µMol) of 91.95%. It also gave a Viability % (MCF7 cell line; MCF7, 12.5 µMol) of 8.047%, a Toxicity % (MCF7 cell line; MCF7, 25 µMol) of 97.39% and a Viability % (MCF7 cell line; MCF7, 25 µMol) of 2.614%. The Toxicity % (A549 cell line; A549, Conc. 0.04875 µMol) was 0.09882%, the Viability % (A549 cell line; A549, Conc. 0.04875 µMol) was 99.9% and the Toxicity % (A549 cell line; A549, Conc. 0.0975 µMol) was 0.1346%. It also gave a Viability % (A549 cell line; A549, Conc. 0.0975 µMol) of 99.87%, a Toxicity % (A549 cell line; A549, Conc. 0.195 µMol) of 0.168% and a Viability % (A549 cell line; A549, Conc. 0.195 µMol) of 99.83%. It also gave a Toxicity % (A549 cell line; A549, Conc. 0.391 µMol) of 13.91%, a Viability % (A549 cell line; A549, Conc. 0.391 µMol) of 86.09% and a Toxicity % (A549 cell line; A549, Conc. 0.781 µMol) of 29.94%. For the same compound, the Viability % (A549 cell line; A549, Conc. 0.781 µMol) was 70.06%, the Toxicity % (A549 cell line; A549, Conc. 1.562 µMol) was 41.33% and the Viability % (A549 cell line; A549, Conc. 1.562 µMol) was 58.67%. It also gave a Toxicity % (A549 cell line; A549, Conc. 3.125 µMol) of 53.33%, a Viability % (A549 cell line; A549, Conc. 3.125 µMol) of 46.67% and a Toxicity % (A549 cell line; A549, Conc. 6.25 µMol) of 80.11%. The Viability % (A549 cell line; A549, Conc. 6.25 µMol) was 19.89%, the Toxicity % (A549 cell line; A549, Conc. 12.5 µMol) was 91.33% and the Viability % (A549 cell line; A549, Conc. 12.5 µMol) was 8.669%. For the same compound, the Toxicity % (A549 cell line; A549, Conc. 25 µMol) was 96.98%, the Viability % (A549 cell line; A549, Conc. 25 µMol) was 3.024% and the IC50 (A549 cell line) was 1.586 ± 0.001 µM. The “DPPH scavenging, inhibition (%)” value ([1]; 0.01 µg/mL) was 43.26 ± 0.73% and the “DPPH scavenging, inhibition (%)” value ([1]; 0.05 µg/mL) was 62.96 ± 0.73%.
